Publication PMC6257473, “Artificial Self-Sufficient P450 in Reversed Micelles” (Molecules, 2010)

Biological target: T1, A. pernix ADH (Aeropyrum pernix, UniProt Q9Y9P9)
T1 construct: heat treatment, DEAE Sepharose and Superdex 200
T1 sequence (Q9Y9P9 1-344): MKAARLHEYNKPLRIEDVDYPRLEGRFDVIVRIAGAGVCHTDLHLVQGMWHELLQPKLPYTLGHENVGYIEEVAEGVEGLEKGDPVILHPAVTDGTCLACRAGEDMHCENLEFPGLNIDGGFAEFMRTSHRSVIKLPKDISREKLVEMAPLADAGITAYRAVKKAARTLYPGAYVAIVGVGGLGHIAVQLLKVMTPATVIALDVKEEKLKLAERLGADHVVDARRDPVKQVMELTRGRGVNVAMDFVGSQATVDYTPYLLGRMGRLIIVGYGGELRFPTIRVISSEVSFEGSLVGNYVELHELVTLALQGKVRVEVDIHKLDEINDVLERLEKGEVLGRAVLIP
Assay: NADH formation, initial rate
Format: biochemical
Conditions: 70 μM NAD+, 25 °C

Q: For CCCC(C)O (centres unmarked) [2-pentanol], which “NADH formation, initial rate” value (aqueous, 50 mM potassium phosphate pH 7.4, 150 mM KCl, 1.2 μM enzyme, substrate activation) is on record?
A: substrate activation was also observed when using 2-pentanol as a substrate in water

Q: Which “NADH formation, initial rate” value (CTAB/2-pentanol/isooctane reversed micelles, W0 16.7, 2-pentanol as co-substrate) does the source give for NC(=O)c1ccc[n+]([C@@H]2O[C@H](COP(=O)(O)OP(=O)(O)OC[C@H]3O[C@@H](n4cnc5c(N)ncnc54)[C@H](O)[C@@H]3O)[C@@H](O)[C@H]2O)c1 [NAD^+] here?
A: A. pernix ADH showed NAD^+ reduction activity in a CTAB/2-pentanol/isooctane reversed micellar system
